Measurements reported in ChEMBL document CHEMBL6115011, “Optimizing biofilm inhibitors: Balancing activity and toxicity in 2N-aminated 5-aryl-2-aminoimidazoles” (Bioorg Med Chem, 2025).

What was measured:
Escherichia coli [1] = experiment: Inhibition of biofilm formation in Escherichia coli TG1 at 25 degree C measured after 24 hrs by crystal violet staining based microplate reader analysis; type: functional, organism-based; conditions: TG1, 24 h
Escherichia coli [2] = experiment: Antibacterial activity against Escherichia coli TG1 at 25 degree C measured after 24 hrs by crystal violet staining based microplate reader analysis; type: functional, organism-based; conditions: TG1, 24 h
Pseudomonas aeruginosa [3] = experiment: Inhibition of biofilm formation in Pseudomonas aeruginosa PA14 at 25 degree C measured after 24 hrs by crystal violet staining based analysis; type: functional, organism-based; conditions: PA14, 24 h
Pseudomonas aeruginosa [4] = experiment: Antibacterial activity against Pseudomonas aeruginosa PA14 at 25 degree C measured after 24 hrs by crystal violet staining based microplate reader analysis; type: functional, organism-based; conditions: PA14, 24 h
Staphylococcus aureus [5] = experiment: Inhibition of biofilm formation in Staphylococcus aureus SH1000 at 25 degree C measured after 48 hrs by crystal violet staining based analysis; type: functional, organism-based; conditions: SH1000, 48 h
Staphylococcus aureus [6] = experiment: Antibacterial activity against Staphylococcus aureus SH1000 at 25 degree C measured after 48 hrs by crystal violet staining based microplate reader analysis; type: functional, organism-based; conditions: SH1000, 48 h
[7] = system: Staphylococcus epidermidis; experiment: Inhibition of biofilm formation in Staphylococcus epidermidis at 25 degree C measured after 48 hrs by crystal violet staining based analysis; type: functional, organism-based
[8] = system: Staphylococcus epidermidis; experiment: Antibacterial activity against Staphylococcus epidermidis at 25 degree C measured after 48 hrs by crystal violet staining based microplate reader analysis; type: functional, organism-based
Staphylococcus aureus [9] = experiment: Inhibition of biofilm formation in methicillin-resistant Staphylococcus aureus at 25 degree C measured after 48 hrs by crystal violet staining based analysis; type: functional, organism-based
Staphylococcus aureus [10] = experiment: Antibacterial activity against methicillin-resistant Staphylococcus aureus at 25 degree C measured after 48 hrs by crystal violet staining based microplate reader analysis; type: functional, organism-based
[11] = Cytotoxicity against human PBMC cells assessed as survival rate at 100 uM measured after 72 hrs by trypan blue staining based assay relative to control; type: toxicity, cell-based; conditions: read-out: Survival
[12] = Cytotoxicity against human PBMC cells assessed as survival rate at 400 uM measured after 72 hrs by trypan blue staining based assay relative to control; type: toxicity, cell-based; conditions: read-out: Survival
[13] = Cytotoxicity against human PBMC cells assessed as survival rate at 25 uM measured after 72 hrs by trypan blue staining based assay (reference value: 94.0%); type: toxicity, cell-based; conditions: read-out: Survival
[14] = Genotoxicity in human CAPAN-1 cells at 100 to 400 uM measured after 3 hrs by Western blot analysis; type: toxicity, cell-based; conditions: capan-1, 3 h, dose 100-400 µM

With `NCCCCCCNc1ncc(-c2ccccc2)[nH]1` the IC50 (Escherichia coli [1]) was 26.5 µM, the IC50 (Escherichia coli [2]) was 55.3 µM and the IC50 (Pseudomonas aeruginosa [3]) was 23.4 µM. For the same compound, the IC50 (Pseudomonas aeruginosa [4]) was 73.4 µM, the IC50 (Staphylococcus aureus [5]) was 95.6 µM and the IC50 (Staphylococcus aureus [6]) was 186 µM. For the same compound, the IC50 [7] was 29.2 µM, the IC50 [8] was 164 µM and the IC50 (Staphylococcus aureus [9]) was 62.7 µM. The IC50 (Staphylococcus aureus [10]) was 206 µM, the viability at 72 h, 100 µM [11] was 12.9% and the viability at 72 h, 400 µM [12] was 2.9%. For the same compound, the viability at 72 h, 25 µM [13] was 78.6% and the Activity [14] was “Non-toxic”.
